In PMC9127117, “Towards discovery of inhibitors of the undecaprenyl-pyrophosphate phosphatase BacA by virtual high-throughput screening” (Computational and Structural Biotechnology Journal, 2022):
Entries after “also recorded” stand apart in the source; their conditions may differ.

Legend:
[1] = system: BWbacA-singleΔtolC strain; assay: Growth inhibition / MIC in 2YT liquid medium; type: cell-based, E. coli; details: for MIC: BWbacA-singleΔtolC strain
Experimental: (§1) Bacteria were grown in 2YT broth supplemented, when required, with ampicillin or kanamycin at concentrations of 100 and 50 µg/ml, respectively. The BWΔtolC strain was obtained from the Keio collection. The BWΔbacAΔtolC and BWbacA-singleΔtolC were generated by P1 transduction of the ΔtolC::Kan^R cassette from BWΔtolC strain to BWΔbacA and DMEG9 recipient strains, respectively. The strains S. aureus RN4220 and S. pneumoniae R6 were used to evaluate the antibacterial activity of certain compounds. S. aureus was grown on BHI (Brain Heart Infusion) broth and S. pneumoniae was grown on Colombia broth supplemented with 5% horse blood.
(§2) For compounds displaying inhibitory activity on BacA catalysis, their antibacterial activity was tested on different E. coli strains by monitoring bacterial growth in the presence of compounds (125, 250 and 500 µM). One colony was cultured in 10 ml of 2YT liquid medium and incubated at 37℃ for 6 h. The absorbance of the culture at 600 nm (A600) was measured to prepare a bacterial suspension in 2YT liquid medium at 15.10^6 CFU/ml (A600 = 1 corresponds to 3.10^8 CFU/ml). The bacterial suspension (200-µl) was then grown on 96-well plates in the presence or not of compounds (5-µl), which was added from a stock solution prepared in DMSO. Negative controls were then performed by growing the cells without inhibitors in 2YT medium and in 2YT medium supplemented with 2.5% of DMSO. The plates were incubated at 37℃ overnight with A600 measurements every 10 min using a Tecan F200 PRO microplate reader (iControl software).

BWΔtolC strain = assay: Growth inhibition in 2YT liquid medium (off-target activity); type: cell-based, E. coli
Experimental: as §1, §2

[2] = system: E. coli BW25113 wild type strain; assay: Growth inhibition in 2YT liquid medium; type: cell-based; details: 500 µM compound
Experimental: as §2
(§3) Two compounds, 3 and 5, were assessed for antibacterial activity using the broth microdilution method against the E. coli BW25113 wild type strain. […] Considering the plurality of C55-PP phosphatases in E. coli, the inhibition of BacA may not induce growth inhibition as long as the PAP2 enzymes (PgpB, YbjG, and LpxT) are functional. Consequently, compounds 3 and 5 were tested against a BW25113 variant in which the PAP2 enzymes were depleted (DMEG9 strain, alias BWbacA-single). […]

[3] = system: DMEG9 strain, alias BWbacA-single; assay: Growth inhibition in 2YT liquid medium; type: cell-based, E. coli; details: PAP2-depleted DMEG9; 500 µM compound
Experimental: as §2, §3

BWΔbacAΔtolC strain = assay: Growth inhibition in 2YT liquid medium; type: cell-based, E. coli; details: BacA and TolC depleted; 500 µM compound
Experimental: as §1
For compounds displaying inhibitory activity on BacA catalysis, their antibacterial activity was tested on different E. coli strains by monitoring bacterial growth in the presence of compounds (125, 250 and 500 µM). One colony was cultured in 10 ml of 2YT liquid medium and incubated at 37℃ for 6 h. The absorbance of the culture at 600 nm (A600) was measured to prepare a bacterial suspension in 2YT liquid medium at 15.10^6 CFU/ml (A600 = 1 corresponds to 3.10^8 CFU/ml). […] The plates were incubated at 37℃ overnight with A600 measurements every 10 min using a Tecan F200 PRO microplate reader (iControl software). […]

[4] = system: BWbacA-singleΔtolC strain carrying the empty vector (pTRCH30); assay: Growth inhibition, control strain carrying the empty vector; type: cell-based, E. coli; details: 500 µM compound
Experimental: as §2
(§4) To further assess the specificity of compounds 3 and 5 with respect to BacA, they were tested against the strain depleted of both TolC and PAP2 but overexpressing an ectopic copy of the bacA gene on a plasmid.

[5] = system: BWbacA-singleΔtolC strain overexpressing an ectopic copy of the bacA gene on a plasmid; assay: Growth inhibition upon bacA overexpression; type: cell-based, E. coli; details: bacA overexpressed in trans; 500 µM compound
Experimental: as §2, §4

PgpB = target: T1, PgpB (Escherichia coli, UniProt P0A924); assay: C55-PP phosphatase assay of PgpB; type: biochemical, E. coli; details: 100 µM compound; data not shown
T1 construct: made in house
Experimental: C43(DE3) cells carrying pTrcBac30 plasmid were used for the expression of N-terminally His6-tagged BacA (His6-BacA) protein from E. coli. Cells were grown in 2YT-ampicillin at 37 °C and when the OD600 reached 0.9, the temperature of the culture was decreased to 22 °C and protein expression was induced by addition of 1 mM IPTG. Incubation was continued overnight at 22 °C and bacteria were harvested in the cold and washed in a buffer containing 20 mM Tris-HCl, pH 7.4, 0.4 M NaCl, 10% glycerol and 10 mM β-mercaptoethanol (buffer A). The cells were disrupted by three successive passages through a French press and the suspension was centrifuged at 200,000× g, 4 °C for 45 min. The pellet of membranes was washed with buffer A. The membranes were resuspended in buffer A supplemented by 2% DDM detergent. […] Fractions containing the BacA protein were subjected to an additional gel-filtration purification step on Superdex 200 (HiLoadTM 16/600 SuperdexTM 200) equilibrated in 0.1% DDM-containing buffer A. 1-ml fractions were collected and analysed by SDS-PAGE. […]
The C55-PP phosphatase activity of BacA was assessed by measuring the percentage of transformation of [^14C]C55-PP into [^14C]C55-P upon incubation with BacA by TLC analysis. […] The radioactive spots were located and quantified with a radioactivity scanner. […] The C55-PP phosphatase activity of PgpB was measured as described for BacA.

T1 sequence (P0A924 whole entry): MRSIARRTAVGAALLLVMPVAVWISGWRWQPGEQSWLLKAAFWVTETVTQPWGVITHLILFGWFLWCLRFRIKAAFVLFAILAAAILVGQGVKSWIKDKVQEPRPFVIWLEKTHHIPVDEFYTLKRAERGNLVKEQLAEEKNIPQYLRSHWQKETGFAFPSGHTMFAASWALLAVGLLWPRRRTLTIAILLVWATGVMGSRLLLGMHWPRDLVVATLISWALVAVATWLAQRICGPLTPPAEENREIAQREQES

## O=C(O)c1csc(S(=O)(=O)Nc2ccc3sccc3c2)c1 [Compound 3]
[1]
  MIC: 169 µg/mL
[1]; 125, 250 and 500 µM tested
  MIC: 500 µM
[1]; BWΔtolC and BWbacA-singleΔtolC strains, 250 and 500 µM
  class of antibacterial activity (Figure S2): antibacterial activity on both strains
[1]; TolC/PAP2-depleted BWbacA-singleΔtolC, 500 µM compound
  growth inhibition: complete growth inhibition; also recorded: total growth inhibition
BWΔtolC strain; BWΔtolC, 500 µM compound
  increase of the doubling time of cells: 3 fold
BWΔtolC strain; TolC-depleted BWΔtolC, 500 µM compound
  growth inhibition: moderate inhibition; also recorded: significant growth inhibition
BWΔtolC strain; antibacterial activity against BWΔtolC
  Off-target activity: Yes
[2]
  growth inhibition: No growth inhibition
[3]
  growth inhibition: no growth inhibition
BWΔbacAΔtolC strain
  growth inhibition (BacA-independent activity): moderate inhibition; also recorded: significant, although moderate, BacA-independent activity
[4]
  growth inhibition: total growth inhibition
[5]
  growth inhibition upon bacA overexpression: partially alleviated growth inhibition; also recorded: susceptibility was decreased at the level observed with the strain depleted of TolC alone
PgpB
  inhibition of PgpB: not inhibited
